In publication PMC5054363 (Scientific Reports, 2016):
“Also recorded” adds a separate entry of the source. *1 amine or outer side, *2 acyl side, *3 side chain or, on linkers, in order; H or OH if unused. Where a SMILES comes first, the peptide text is derived from it. Bridges are numbered along the chain shown (N, C = ends). [ ]: non-standard residue; d: D form. The star is where a group is joined. X1 = CC[C@H](C)[C@@H](N[*:1])[C@@H](O)CC(=O)O[C@H](C(=O)[C@H](C)C(=O)[*:2])C(C)C; NMeY = CN[C@@H](Cc1ccc(O)cc1)C(=O)O; dNMeL = CN[C@H](CC(C)C)C(=O)O; Pyruvoyl = CC(=O)C(=O)*

Legend:
[1] = test system: HeLa-APL-R cervical cancer cells (plitidepsin-resistant); parameters: method as in PMID 15365569; details: 72 h, Fig. 1A, reported as previously described; cited from earlier work
[2] = target: T1, eEF1A2 purified from rabbit muscle (Oryctolagus cuniculus, UniProt Q71V39); assay: biochemical
Procedure: (§1) (A) Saturation binding curve. Protein and radioligand were incubated for 1 h at room temperature and samples were processed as described in the text. […] The experiment was performed as described in the text, and the experimental points were fitted to a single exponential decay equation by non-linear regression. […] Extracts were then digested with the indicated concentrations of subtilisin for 30 min at room temperature. Samples were resolved by SDS-PAGE and the degradation of eEF1A2 analyzed by Western blot; quantitation of the bands from the DARTS assay was performed with the ImageJ software.
At the selected times after this last addition, 400 μL of each sample were withdrawn and processed as above.

[3] = test system: NCI-H460-APL-R non-small cell lung cancer cells (plitidepsin-resistant); assay: Cell growth inhibition (MTT, 72 h), NCI-H460-APL-R; assay type: cell-based; details: highest concentration tested 100 nM
[4] = test system: HGC27 gastric carcinoma cells; assay: Cell growth inhibition (MTT, 72 h), HGC27; assay type: cell-based; details: parental HGC27, 72 h
Procedure: HeLa cervix adenocarcinoma (ATCC CCL-2), K-562 chronic myelogenous leukemia (ATCC CCL-243), NCI-H460 lung cancer (ATCC HTB-177) and HGC27 gastric cancer (ATCC CRL-2506) cells were obtained from ATCC (Manassas, VA, USA) and cultured following standard procedures. Viability assays were performed utilizing 3-(4,5-dimethylthiazol-2-yl)-2,5-diphenyltetrazolium bromide (MTT) according to methods described elsewhere[46].

[5] = test system: p38, ERK and JNK phosphorylation in HeLa-APL-R cells expressing eEF1A2-GFP; assay: Signaling (Western blot) in HeLa-APL-R expressing eEF1A2-GFP; assay type: cell-based, human; details: plitidepsin 450 nM
Procedure: (§2) (A) HeLa and HeLa-APL-R cells were stably transfected with an expression vector encoding for eEF1A2-GFP fusion protein. Clones homogeneously expressing the GFP were selected. The levels of expression of eEF1A2 were analyzed by Western blot using specific antibodies. The position of the endogenous and the GFP-fusion proteins are indicated. […] Levels of expression attained after transfection were similar to the endogenous levels. […] Concentration-response curves were performed at 72 h. Cell growth was determined by the MTT method and expressed as percentage of control cell survival.
(§3) For transfection and selection of cell clones, HeLa and HeLa-APL-R cells were seeded in 24 well plates at 40% confluence and allowed to stand for 24 hours at 37 °C and 5% CO2. Before transfection, the culture medium was changed to Opti-MEM (Life Technologies, Carlsbad, CA, USA). Plasmids encoding eEF1A2-GFP were incubated with Lipofectamine (Life Technologies, Carlsbad, CA, USA) under the recommendations of the manufacturer and added to the cell medium. After 24 h incubation at 37 °C and 5% CO2, the culture medium was replaced by the standard DMEM supplemented with 2 mg/ml of G-418 for the selection of clones expressing the exogenous gene. Clones were further selected following the expression of the GFP-fused protein through fluorescence microscopy.

[6] = test system: HeLa-APL-R cells stably transfected with eEF1A2-GFP; assay: Antiproliferative activity in HeLa-APL-R stably transfected with eEF1A2-GFP; assay type: cell-based, human; details: 72 h, MTT
Procedure: as §2, §3

[7] = test system: HeLa cells ectopically overexpressing eEF1A2-GFP; assay: Antiproliferative activity in HeLa overexpressing eEF1A2-GFP; assay type: cell-based, human; details: HeLa overexpressing eEF1A2-GFP (Supplementary Figure 1)
Procedure: as §3
LEGENDS TO SUPPL EMENTARY FI GURES
HeLa and HeLa-APL -R cells.
autofluorescence AF (grey).
GFP at different concentrations identified in the phasor plot.
Supplementary Figure 3. FRET efficiency estimation from FRET “Dn” and FRET
of incubation with 10 nM plitidepsin- DMAC. Clusters of phasors corresponding to the […]

[8] = target: T1, eEF1A2 purified from rabbit muscle; details: saturation binding, Swillens fit
Procedure: as §1

[9] = test system: human leukemic cells; details: cited from earlier work
Text: The high affinity of this interaction is in consonance with the nanomolar antiproliferative potency of this compound, also observed in many previous reports (for a review see ref. [10]).

[10] = test system: CHRM4 (M4 muscarinic acetylcholine receptor); assay: PathHunter acetylcholine-mediated CHRM4 activation; assay type: cell-based; details: CHO-transfected cell line, preliminary, data not shown
Text: For example, it is known that eEF1A is able to directly increase the activity of sphingosine kinase-1 (SK1), an effect that is related to oncogenesis. […] The hijacking of eEF1A with the consequent reduction of SK1 activity has already been described as a biological mechanism in dengue virus type-2 infected cells. Another example is the specific binding of eEF1A2 to the i3 loop of M4, but not M1, muscarinic acetylcholine receptor[40]. This direct interaction with M4 regulates its cell membrane density and activity. […] This is due to a specific interaction of eEF1A with aberrant polypeptides named defective ribosomal products (DRiPs) that are ligated to multi-ubiquitin chains following translation damage; eEF1A also plays a role in sensing DRiP accumulation when the proteasome is inhibited.

[11] = test system: signaling in HeLa cells overexpressing eEF1A2-GFP; assay: Signaling (Western blot) in HeLa overexpressing eEF1A2-GFP; assay type: cell-based, human; details: plitidepsin 450 nM
Procedure: as §2, §3

[12] = test system: HeLa cervical cancer cells; parameters: method as in PMID 15365569; details: HeLa parental cells, 72 h, Fig. 1A; reported as previously described; cited from earlier work
[13] = test system: K-562 chronic myelogenous leukemia cells; assay: Cell growth inhibition (72 h), K-562; assay type: cell-based; details: K-562, 72 h
[14] = test system: multiple myeloma cells; details: cited from earlier work
Text: For example, it is known that eEF1A is able to directly increase the activity of sphingosine kinase-1 (SK1), an effect that is related to oncogenesis. […] The hijacking of eEF1A with the consequent reduction of SK1 activity has already been describe ...

[15] = test system: sphingosine kinase-1 (SK1); assay: Sphingosine kinase-1 activity in tumor cells; assay type: cell-based; details: preliminary, data not shown
[16] = test system: eEF1A2; assay: GDP/GTP exchange in eEF1A2; assay type: biochemical; details: with EF1B, data not shown
[17] = test system: signaling events in HeLa-APL-R cells; details: HeLa-APL-R versus parental HeLa; cited from earlier work
Text: In contrast, HeLa cells ectop ...

T1 sequence (Q71V39 whole entry): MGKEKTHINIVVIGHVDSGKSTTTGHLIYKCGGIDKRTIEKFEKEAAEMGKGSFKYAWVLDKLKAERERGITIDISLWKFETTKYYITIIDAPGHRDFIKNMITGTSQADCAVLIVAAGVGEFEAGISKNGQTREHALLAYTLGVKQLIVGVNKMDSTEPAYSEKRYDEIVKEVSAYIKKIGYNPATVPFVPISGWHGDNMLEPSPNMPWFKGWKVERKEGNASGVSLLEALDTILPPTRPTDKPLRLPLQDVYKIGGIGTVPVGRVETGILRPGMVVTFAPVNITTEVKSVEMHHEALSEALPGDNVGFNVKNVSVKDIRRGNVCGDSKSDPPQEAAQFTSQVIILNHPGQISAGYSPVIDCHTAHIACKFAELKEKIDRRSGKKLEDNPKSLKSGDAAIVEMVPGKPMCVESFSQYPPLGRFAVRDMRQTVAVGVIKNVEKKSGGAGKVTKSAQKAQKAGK

CC[C@H](C)[C@H]1NC(=O)[C@@H](NC(=O)[C@@H](CC(C)C)N(C)C(=O)[C@@H]2CCCN2C(=O)C(C)=O)[C@@H](C)OC(=O)[C@H](Cc2ccc(OC)cc2)N(C)C(=O)[C@@H]2CCCN2C(=O)[C@H](CC(C)C)NC(=O)[C@@H](C)C(=O)[C@H](C(C)C)OC(=O)C[C@@H]1O [plitidepsin, Plitidepsin] (Pyruvoyl-P[dNMeL]T[X1]LP[NMeY](Me); ester 3-C (inferred))
IC50 [1]: > 100 nM | koff ([2]; read-out: kOFF (first-order rate constant of dissociation)): 0.0019 ± 8e-07 s⁻¹ | residence time ([2]; read-out: target residence time, from dissociation kinetics (kOFF), rabbit eEF1A2): 8.8 min | effect on cell growth [3]: did not cause any effect on cell growth | IC50 [4]: 0.9 nM | phosphorylation of p38, ERK and JNK [5]: led to phosphorylation of p38, ERK and JNK | sensitivity to plitidepsin after ectopic expression of eEF1A2 [6]: partially recovered sensitivity; also recorded: restored the sensitivity | additional sensitization to the drug [7]: did not show any additional sensitization | Kd ([8]; [14C]-plitidepsin 0.1 to 4 μM, 100 nM rabbit eEF1A2, 1 μM Gpp(NH)p, pH 7.5, 5% DMSO, 1 h, room temperature, filtration, triplicate): 79 ± 30 nM | Bmax ([8]; [14C]-plitidepsin, 1 h, room temperature): 0.7 mol per mol of protein | alpha (ratio between non-specifically bound ligand and free ligand) ([8]; [14C]-plitidepsin): 0.014 ± 0.0005 | effect of cytochalasin B and jasplakinolide pretreatment on apoptotic response ([9]; 10 nM plitidepsin, actin-binding agents): prevented | effect of cycloheximide pretreatment on apoptotic response ([9]; 10 nM plitidepsin, cycloheximide at concentrations that inhibit protein synthesis): not to be affected | apoptotic response ([9]; human leukemic cells, 10 nM): fast and complete apoptotic response | decrease of acetylcholine-mediated CHRM4 activation [10]: 55% | alteration in the signaling elicited by plitidepsin [11]: did not show any alteration in the signaling | IC50 [12]: 1 nM | IC50 [13]: 9.35 nM | combination effect with bortezomib ([14]; with bortezomib): synergistic | combination effect with lenalidomide ([14]; with lenalidomide): synergistic | combination effect with thalidomide ([14]; with thalidomide): synergistic | SK1 activity in tumor cells [15]: decrease the activity of this enzyme in tumor cells | effect on GDP/GTP exchange in eEF1A2 [16]: very modest | signaling events triggered by plitidepsin [17]: completely lost
